This assay relates to HCV genotype 1b replicon in Huh 7 cells (HCV 1b_Huh-Luc/Neo-ET cell line). Nature of the assay: HCV replicon assay (luciferase readout). The format is cell-based. The note with it: Hepatitis C virus, Huh-7; Table 1; EC50 range class; replicon luciferase, 72 h incubation, average EC50; read-out: Inhibition of HCV genotype 1b. As for the experimental part:
Biological activity of the compounds of the invention was determined using an HCV replicon assay. The HCV 1b_Huh-Luc/Neo-ET cell line persistently expressing a bicistronic genotype 1b replicon in Huh 7 cells was obtained from ReBLikon GMBH. This cell line was used to test compound inhibition using luciferase enzyme activity readout as a measurement of compound inhibition of replicon levels.
On Day 1 (the day after plating cells), each compound is added in triplicate to the cells. Plates are incubated for 72 h prior to determining luciferase levels. Enzyme activity was measured using a Bright-Glo Kit (cat. number E2620) manufactured by Promega Corporation. The following equation was used to generate a percent control value for each compound. % Control=(Compound Luciferase Level/Control Luciferase Level)*100
The EC50 value was determined using GraphPad Prism and the following equation: Y=Bottom asymptote+(Top asymptote−Bottom asymptote)/(1+10^((Log EC50−X)*HillSlope))
EC50 values of compounds are determined several times in the replicon assay to generate average EC50 values.
In general terms: A replicon is a self-replicating genome or part of one, used to study replication in cells.
As to `COCCOc1cc(-c2cnc([C@@H]3CCCN3C(=O)[C@@H](NC(=O)OC)C(C)C)[nH]2)ccc1-c1ccc(-c2cnc([C@@H]3CCCN3C(=O)[C@@H](NC(=O)OC)C(C)C)[nH]2)cc1OCCOC` [Compound 1], the EC50 is under 1 nM. To `COCCOc1c(-c2ccc(-c3cnc([C@@H]4CCCN4C(=O)[C@@H](NC(=O)OC)C(C)C)[nH]3)cc2)ccc(-c2cnc([C@@H]3CCCN3C(=O)[C@@H](NC(=O)OC)C(C)C)[nH]2)c1OCCOC` [Compound 2] belongs under 1 nM; to `CC[C@H](C)C(NC(=O)OC)C(=O)N1CCC[C@H]1c1ncc(-c2ccc(-c3ccc(-c4cnc([C@@H]5CCCN5C(=O)[C@@H](NC(=O)OC)[C@@H](C)CC)[nH]4)c(OCCOC)c3OCCOC)cc2)[nH]1` (stereo partly drawn) [Compound 3], under 1 nM. To `COCCOc1c(-c2ccc(-c3cnc([C@@H]4CCCN4C(=O)[C@@H](NC(=O)OC)C4CCCC4)[nH]3)cc2)ccc(-c2cnc([C@@H]3CCCN3C(=O)[C@@H](NC(=O)OC)C3CCCC3)[nH]2)c1OCCOC` [Compound 4] belongs under 1 nM.

Turning to `COCCOc1cc(-c2cnc([C@@H]3CCCN3C(=O)[C@H](C)NC(=O)OC)[nH]2)ccc1-c1ccc(-c2cnc([C@@H]3CCCN3C(=O)[C@H](C)NC(=O)OC)[nH]2)cc1OCCOC` [Compound 6], the EC50 lay within 10 to 999 nM. The result for `CC[C@H](C)C(NC(=O)OC)C(=O)N1CCC[C@H]1c1ncc(-c2ccc(-c3ccc(-c4cnc([C@@H]5CCCN5C(=O)C(NC(=O)OC)[C@@H](C)CC)[nH]4)cc3OCCOC)c(OCCOC)c2)[nH]1` (stereo partly drawn) [Compound 7] reads under 1 nM. The result for `COCCOc1cc(-c2cnc([C@@H]3CCCN3C(=O)[C@@H](NC(=O)OC)C3CCCC3)[nH]2)ccc1-c1ccc(-c2cnc([C@@H]3CCCN3C(=O)[C@@H](NC(=O)OC)C3CCCC3)[nH]2)cc1OCCOC` [Compound 8] reads under 1 nM; that for `COCCOc1cc(-c2cnc([C@@H]3CCCN3C(=O)[C@@H](NC(=O)OC)C3CCCCC3)[nH]2)ccc1-c1ccc(-c2cnc([C@@H]3CCCN3C(=O)[C@@H](NC(=O)OC)C3CCCCC3)[nH]2)cc1OCCOC` [Compound 9], under 1 nM; that for `COCCOc1c(-c2ccc(-c3cnc([C@@H]4CCCN4C(=O)[C@H](C)NC(=O)OC)[nH]3)cc2)ccc(-c2cnc([C@@H]3CCCN3C(=O)[C@H](C)NC(=O)OC)[nH]2)c1OCCOC` [Compound 10], under 1 nM. With `COCCOc1c(-c2ccc(-c3cnc([C@@H]4CCCN4C(=O)C(NC(=O)OC)[C@@H](C)OC)[nH]3)cc2)ccc(-c2cnc([C@@H]3CCCN3C(=O)C(NC(=O)OC)[C@@H](C)OC)[nH]2)c1OCCOC` (stereo partly drawn) [Compound 12], the EC50 was in the range of 1 to 9.9 nM.

For `COCCOc1c(-c2ccc(-c3cnc([C@@H]4CCCN4C(=O)[C@@H](NC(=O)OC)C(C)(C)C)[nH]3)cc2)ccc(-c2cnc([C@@H]3CCCN3C(=O)[C@@H](NC(=O)OC)C(C)(C)C)[nH]2)c1OCCOC` [Compound 13], the EC50 lay within 1 to 9.9 nM.

`COCCOc1c(-c2ccc(-c3cnc([C@@H]4CCCN4C(=O)[C@@H](NC(=O)OC)C4CCOCC4)[nH]3)cc2)ccc(-c2cnc([C@@H]3CCCN3C(=O)[C@@H](NC(=O)OC)C3CCOCC3)[nH]2)c1OCCOC` [Compound 14]: the EC50 was in the range of 1 to 9.9 nM. To `COCCOc1c(-c2ccc(-c3cnc([C@@H]4CCCN4C(=O)[C@@H](c4ccccc4)N(C)C)[nH]3)cc2)ccc(-c2cnc([C@@H]3CCCN3C(=O)[C@@H](c3ccccc3)N(C)C)[nH]2)c1OCCOC` [Compound 15] belongs under 1 nM; to `COCCOc1c(-c2ccc(-c3cnc([C@@H]4CCCN4C(=O)[C@@H](c4ccccc4)N4CCCC4)[nH]3)cc2)ccc(-c2cnc([C@@H]3CCCN3C(=O)[C@@H](c3ccccc3)N3CCCC3)[nH]2)c1OCCOC` [Compound 16], 1 to 9.9 nM; to `COCCOc1c(-c2ccc(-c3cnc([C@@H]4CCCN4C(=O)[C@H](NS(C)(=O)=O)c4ccccc4)[nH]3)cc2)ccc(-c2cnc([C@@H]3CCCN3C(=O)[C@H](NS(C)(=O)=O)c3ccccc3)[nH]2)c1OCCOC` [Compound 17], under 1 nM. Regarding `COCCOc1c(-c2ccc(-c3cnc([C@@H]4CCCN4C(=O)[C@H](NC(=O)OC)C(C)C)[nH]3)cc2)ccc(-c2cnc([C@@H]3CCCN3C(=O)[C@H](C)NC(=O)OC)[nH]2)c1OCCOC` [Compound 18], the EC50 was in the range of 1 to 9.9 nM. As for `CC[C@H](C)[C@H](NC(=O)OC)C(=O)N1CCC[C@H]1c1ncc(-c2ccc(-c3ccc(-c4cnc([C@@H]5CCCN5C(=O)[C@@H](NC(=O)OC)C(C)C)[nH]4)cc3)c(OCCOC)c2OCCOC)[nH]1` [Compound 19], the EC50 was under 1 nM. For the compound `COCCOc1c(-c2ccc(-c3cnc([C@@H]4CCCN4C(=O)[C@H](NC(=O)OC)c4ccccc4)[nH]3)cc2)ccc(-c2cnc([C@@H]3CCCN3C(=O)[C@H](NC(=O)OC)c3ccccc3)[nH]2)c1OCCOC` [Compound 20], the EC50 was under 1 nM. `COCCOc1c(-c2ccc(-c3cnc([C@@H]4CCCN4C(=O)[C@H](NC(=O)OC)c4ccsc4)[nH]3)cc2)ccc(-c2cnc([C@@H]3CCCN3C(=O)[C@H](NC(=O)OC)c3ccsc3)[nH]2)c1OCCOC` [Compound 21]: the EC50 is under 1 nM. Consider `COCCOc1c(-c2ccc(-c3cnc([C@@H]4CCCN4C(=O)[C@H](NC(=O)OC)c4cccs4)[nH]3)cc2)ccc(-c2cnc([C@@H]3CCCN3C(=O)[C@H](NC(=O)OC)c3cccs3)[nH]2)c1OCCOC` [Compound 22], for which the EC50 is under 1 nM.

In the case of `COCCOc1c(-c2ccc(-c3cnc([C@@H]4CCCN4C(=O)[C@H](NC(C)=O)c4ccccc4)[nH]3)cc2)ccc(-c2cnc([C@@H]3CCCN3C(=O)[C@H](NC(C)=O)c3ccccc3)[nH]2)c1OCCOC` [Compound 23], the EC50 is under 1 nM. To `CNC(=O)N[C@@H](C(=O)N1CCC[C@H]1c1ncc(-c2ccc(-c3ccc(-c4cnc([C@@H]5CCCN5C(=O)[C@H](NC(=O)NC)c5ccccc5)[nH]4)c(OCCOC)c3OCCOC)cc2)[nH]1)c1ccccc1` [Compound 24] belongs under 1 nM; to `COCCOc1cc(-c2cnc([C@@H]3CCCN3C(=O)C(NC(=O)OC)[C@@H](C)OC)[nH]2)ccc1-c1ccc(-c2cnc([C@@H]3CCCN3C(=O)C(NC(=O)OC)[C@@H](C)OC)[nH]2)cc1OCCOC` (stereo partly drawn) [Compound 25], 1 to 9.9 nM; to `COCCOc1cc(-c2cnc([C@@H]3CCCN3C(=O)[C@H](NC(=O)OC)c3ccccc3)[nH]2)ccc1-c1ccc(-c2cnc([C@@H]3CCCN3C(=O)[C@H](NC(=O)OC)c3ccccc3)[nH]2)cc1OCCOC` [Compound 26], under 1 nM. The result for `COCCOc1c(-c2ccc(-c3cnc([C@@H]4CCCN4C(=O)[C@@H](NC(=O)OC)C(C)C)[nH]3)cc2)ccc(-c2cnc([C@@H]3CCCN3C(=O)[C@H](COC)NC(=O)OC)[nH]2)c1OCCOC` [Compound 27] reads under 1 nM; that for `COCCOc1c(-c2ccc(-c3cnc([C@@H]4CCCN4C(=O)[C@@H](NC(=O)OC)C(C)C)[nH]3)cc2)ccc(-c2cnc([C@@H]3CCCN3C(=O)[C@@H](NC(=O)OC)[C@@H](C)OC)[nH]2)c1OCCOC` [Compound 28], under 1 nM; that for `COCCOc1c(-c2ccc(-c3cnc([C@@H]4CCCN4C(=O)[C@@H](NC(=O)OC)C(C)C)[nH]3)cc2)ccc(-c2cnc([C@@H]3CCCN3C(=O)[C@@H](NC(=O)OC)C3CCCC3)[nH]2)c1OCCOC` [Compound 29], under 1 nM.

`COCCOc1c(-c2ccc(-c3cnc([C@@H]4CCCN4C(=O)[C@@H](NC(=O)OC)C(C)C)[nH]3)cc2)ccc(-c2cnc([C@@H]3CCCN3C(=O)[C@H](NC(=O)OC)c3ccccc3)[nH]2)c1OCCOC` [Compound 30]: the EC50 is under 1 nM. To `COCCOc1c(-c2ccc(-c3cnc([C@@H]4CCCN4C(=O)[C@@H](NC(=O)OC)C(C)C)[nH]3)cc2)ccc(-c2cnc([C@@H]3CCCN3C(=O)[C@H](NC(=O)OC)c3ccsc3)[nH]2)c1OCCOC` [Compound 31] belongs under 1 nM; to `COCCOc1c(-c2ccc(-c3cnc([C@@H]4CCCN4C(=O)[C@@H](NC(=O)OC)C(C)C)[nH]3)cc2)ccc(-c2cnc([C@@H]3CCCN3C(=O)[C@H](NC(=O)OC)c3cccs3)[nH]2)c1OCCOC` [Compound 32], under 1 nM; to `COCCOc1c(-c2ccc(-c3cnc([C@@H]4CCCN4C(=O)[C@@H](NC(=O)OC)C(C)C)[nH]3)cc2)ccc(-c2cnc([C@@H]3CCCN3C(=O)[C@@H](c3ccccc3)N(C)C)[nH]2)c1OCCOC` [Compound 33], under 1 nM. Regarding `COCCOc1cc(-c2cnc([C@@H]3CCCN3C(=O)[C@@H](NC(=O)OC)C(C)C)[nH]2)ccc1-c1ccc(-c2cnc([C@@H]3CCCN3C(=O)[C@@H](NC(=O)OC)[C@@H](C)OC)[nH]2)cc1OCCOC` [Compound 34], the EC50 fell in the range of 1 to 9.9 nM. To `CC[C@H](C)[C@H](NC(=O)OC)C(=O)N1CCC[C@H]1c1ncc(-c2ccc(-c3ccc(-c4cnc([C@@H]5CCCN5C(=O)[C@@H](NC(=O)OC)C(C)C)[nH]4)cc3OCCOC)c(OCCOC)c2)[nH]1` [Compound 35] belongs under 1 nM; to `COCCOc1cc(-c2cnc([C@@H]3CCCN3C(=O)[C@@H](NC(=O)OC)C(C)C)[nH]2)ccc1-c1ccc(-c2cnc([C@@H]3CCCN3C(=O)[C@@H](NC(=O)OC)C3CCCC3)[nH]2)cc1OCCOC` [Compound 36], under 1 nM; to `COCCOc1cc(-c2cnc([C@@H]3CCCN3C(=O)[C@@H](NC(=O)OC)C(C)C)[nH]2)ccc1-c1ccc(-c2cnc([C@@H]3CCCN3C(=O)[C@H](NC(=O)OC)c3ccccc3)[nH]2)cc1OCCOC` [Compound 37], under 1 nM. Consider `COCCOc1cc(-c2cnc([C@@H]3CCCN3C(=O)[C@@H](NC(=O)OC)C(C)C)[nH]2)ccc1-c1ccc(-c2cnc([C@@H]3CCCN3C(=O)[C@@H](c3ccccc3)N3CCCC3)[nH]2)cc1OCCOC` [Compound 38], for which the EC50 lay within 1 to 9.9 nM.
